Legend:
human CYP4A11 = molecular target: T1, human CYP4A11 (Homo sapiens, UniProt Q02928); test: CYP4A11 inhibition test (Test Example 1); type: biochemical; conditions: Escherichia coli membrane fraction expressing human CYP4A11, 60 μM luciferine derivative, room temperature 60 minutes, luminescence
T1 construct: host or cells: Escherichia coli (membrane fraction)
T1 sequence (Q02928 5-519): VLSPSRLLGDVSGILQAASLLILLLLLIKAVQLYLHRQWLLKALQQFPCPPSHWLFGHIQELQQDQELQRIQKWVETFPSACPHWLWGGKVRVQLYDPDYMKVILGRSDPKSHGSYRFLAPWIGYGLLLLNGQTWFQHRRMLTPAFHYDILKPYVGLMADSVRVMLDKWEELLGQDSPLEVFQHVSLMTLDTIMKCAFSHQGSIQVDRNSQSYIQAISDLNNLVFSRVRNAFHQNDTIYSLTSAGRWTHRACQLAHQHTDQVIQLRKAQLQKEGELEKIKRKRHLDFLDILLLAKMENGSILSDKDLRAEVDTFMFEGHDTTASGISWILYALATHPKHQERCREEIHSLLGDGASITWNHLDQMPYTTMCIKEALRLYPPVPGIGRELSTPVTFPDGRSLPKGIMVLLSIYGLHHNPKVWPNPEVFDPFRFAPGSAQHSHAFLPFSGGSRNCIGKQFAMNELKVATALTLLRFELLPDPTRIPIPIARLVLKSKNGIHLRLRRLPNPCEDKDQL
In short: (§1)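 Luminescent read-out after adding luciferin detection reagent to a 60 min room-temperature reaction of compound with human CYP-expressing E. coli membrane fraction (100 μg/mL). Substrate and buffer differ: 60 μM luciferin derivative in Tris pH 7.5 with NADPH regeneration for CYP4A11; 2.5 μM in KPO4 pH 7.4 with 1 mM NADPH for CYP4F2.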

human CYP4F2 = molecular target: T2, human CYP4F2 (Homo sapiens, UniProt P78329); test: CYP4F2 inhibition test (Test Example 1); type: biochemical; conditions: Escherichia coli membrane fraction expressing human CYP4F2, 2.5 μM luciferine derivative, room temperature 60 minutes, luminescence
T2 construct: host or cells: Escherichia coli (membrane fraction)
T2 sequence (P78329 5-520): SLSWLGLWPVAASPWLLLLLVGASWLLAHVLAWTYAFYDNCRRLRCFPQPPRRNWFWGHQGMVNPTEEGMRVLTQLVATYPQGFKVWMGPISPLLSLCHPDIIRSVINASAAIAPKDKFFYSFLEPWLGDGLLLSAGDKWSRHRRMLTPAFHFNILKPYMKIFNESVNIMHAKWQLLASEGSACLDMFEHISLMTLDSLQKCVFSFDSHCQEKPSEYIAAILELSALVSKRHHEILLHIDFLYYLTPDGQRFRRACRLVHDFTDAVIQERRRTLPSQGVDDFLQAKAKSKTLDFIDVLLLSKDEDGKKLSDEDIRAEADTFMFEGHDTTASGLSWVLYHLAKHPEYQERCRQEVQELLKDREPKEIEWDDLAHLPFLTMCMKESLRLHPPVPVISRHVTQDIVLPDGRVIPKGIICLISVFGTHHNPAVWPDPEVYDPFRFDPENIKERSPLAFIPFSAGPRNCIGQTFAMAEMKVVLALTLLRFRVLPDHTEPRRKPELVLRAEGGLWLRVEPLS
In short: as §1

| SMILES | IC50 (human CYP4A11) | IC50 (human CYP4F2) |
| --- | --- | --- |
| CC(=O)N1CCCC[C@H]1CCOc1ccc(-c2ccn[nH]2)nc1 [Example 13-6] | 0.53 µM | 1.2 µM |
| CC(=O)N1CCC(COc2ccc(-n3cnnc3)nc2)CC1 [Example 45-5] | 11 µM | 1.6 µM |
| CS(=O)(=O)c1cncc(COc2ccc(-c3ccn[nH]3)nc2)c1 [Example 13-17] | 1.3 µM | 0.86 µM |
| CN(C)S(=O)(=O)N1CCC[C@H](COc2ccc(-c3ccn[nH]3)nc2)C1 [Example 10-10] | 0.029 µM | 0.036 µM |
| Fc1cc(COc2ccc(-c3ccn[nH]3)nc2)ccc1Cl [54-5] | 0.64 µM | 0.013 µM |
| CN(C)S(=O)(=O)N1CC(COc2ccc(-c3ccn[nH]3)nc2)C1 [Example 1-25] | 1.6 µM | 0.64 µM |
| Fc1ccc(COc2ccc(-c3ccn[nH]3)nc2)cc1Cl [54-6] | 0.088 µM | 0.029 µM |
| COC(=O)N1CCC(CCOc2ccc(-c3ccn[nH]3)nc2)C(C)C1 (single isomer, unassigned) [Example 1-16-2] | 0.057 µM | 0.26 µM |
| O=C(C1CC1)N1CCC(COc2ccc(-c3ccn[nH]3)nc2)CC1 [Example 1-5] | 0.53 µM | 0.11 µM |
| CS(=O)(=O)CC(=O)N1CCC[C@@H](COc2ccc(-c3ccn[nH]3)nc2)C1 [Example 3-4] | 0.5 µM | 4.2 µM |
| CC(C)OC(=O)NCCS(=O)(=O)N1CCC[C@H](COc2ccc(-c3ccn[nH]3)nc2)C1 [Example 1-21] | 0.032 µM | 0.018 µM |
| CC(C)COC(=O)N1CCC(CCOc2ccc(-c3ccn[nH]3)nc2)CC1 [Example 1-30] | 0.11 µM | 0.011 µM |
| C1=C(c2cccc(COc3ccc(-c4ccn[nH]4)nc3)c2)CCC1 [Reference Example 53-1, 5-{[3-(Cyclopent-1-en-1-yl)phenyl]methoxyl}-2-(1H-pyrazol-5-yl)pyridine] | 0.21 µM | 0.025 µM |
| CS(=O)(=O)c1cccc(CCOc2ccc(-c3ccn[nH]3)nc2)c1 [Example 14-13] | 2.5 µM | 0.098 µM |
| CNC(=O)N1CCC(CCOc2ccc(-c3ccn[nH]3)nc2)CC1 [Example 9-1, N-Methyl-4-(2-{[6-(1H-pyrazol-5-yl)pyridin-3-yl]oxy}ethyl)piperidine-1-carboxamide] | 0.31 µM | 0.074 µM |
| CN(CCC(=O)N1CCC[C@@H](COc2ccc(-c3ccn[nH]3)nc2)C1)C(=O)OC(C)(C)C [Example 2-11, tert-Butyl methyl {3-oxo-3-[(3R)-3-({[6-(1H-pyrazol-5-yl)pyridin-3-yl]oxy}methyl)piperidin-1-yl]propyl}carbamate] | 0.35 µM | 0.0095 µM |
| CC(=O)N1CCCC[C@@H]1CCOc1ccc(-c2ccn[nH]2)nc1 [Example 13-5] | 3.3 µM | 5 µM |
| CNC(=O)N1CCC[C@@H](COc2ccc(-c3ccn[nH]3)nc2)C1 [Example 6-3] | 0.45 µM | 0.57 µM |
| CCS(=O)(=O)c1cccc(COc2ccc(-c3ccn[nH]3)nc2)c1 [Example 18-6] | 0.027 µM | 0.093 µM |

Further lines, results first:

| IC50 (human CYP4A11) | IC50 (human CYP4F2) | SMILES |
| --- | --- | --- |
| 1.5 µM | 0.11 µM | O=C(NC1CC1)N1CCC(COc2ccc(-c3ccn[nH]3)nc2)CC1 [Example 8-1, N-Cyclopropyl-4-({[6-(1H-pyrazol-5-yl)pyridin-3-yl]oxy}methyl)piperidin-1-carboxamide] |
| 0.12 µM | 0.47 µM | CS(=O)(=O)c1cccc(COc2ccc(-c3cn[nH]c3)nc2)c1 [Example 41-1, 5-[(3-Methylsulfonylphenyl)methoxy]-2-(1H-pyrazol-4-yl)pyridine] |
| 0.41 µM | 0.016 µM | c1ccc2cc(COc3ccc(-c4ccn[nH]4)nc3)ccc2c1 [Example 25-14] |
| 0.64 µM | 0.019 µM | CN(C)C(=O)N1CCC(COc2ccc(-c3ccn[nH]3)nc2)CC1 [Example 6-1, N,N-Dimethyl-4-({[6-(1H-pyrazol-5-yl)pyridin-3-yl]oxy}methyl)piperidin-1-carboxamide] |
| 0.058 µM | 0.045 µM | CC1(OC(=O)NCCC(=O)N2CCC[C@@H](COc3ccc(-c4ccn[nH]4)nc3)C2)CC1 [Example 12-1, 1-Methylcyclopropyl {3-oxo-3-[(3R)-3-({[6-(1H-pyrazol-5-yl)pyridin-3-yl]oxy}methyl)piperidin-1-yl]propyl}carbamate] |
| 1.1 µM | 0.029 µM | O=C(N1CCC(COc2ccc(-c3ccn[nH]3)nc2)CC1)N1CC(F)C1 [Example 7-2] |
| 3.8 µM | 0.44 µM | O=C(CCO)N1CCC(COc2ccc(-c3ccn[nH]3)nc2)CC1 [Example 2-9] |
| 2.7 µM | 0.011 µM | c1cc(-c2ccc(OCc3ccc4nccnc4c3)cn2)[nH]n1 [Example 25-15] |
| 0.1 µM | 0.018 µM | CC(C)(C)OC(=O)NCCCC(=O)N1CCC[C@@H](COc2ccc(-c3ccn[nH]3)nc2)C1 [Example 3-44] |
| 6.5 µM | 0.049 µM | CC(=O)N1CC[C@@H](CCOc2ccc(-c3ccn[nH]3)nc2)C1 [Example 13-8] |
| 1.2 µM | 0.17 µM | CC(C)NC(=O)N1CCC(COc2ccc(-c3ccn[nH]3)nc2)CC1 [Example 5-1, N-(Propan-2-yl)-4-({[6-(1H-pyrazol-5-yl)pyridin-3-yl]oxy}methyl)piperidin-1-carboxamide] |
| 0.69 µM | 0.32 µM | COc1cc(COc2ccc(-c3ccn[nH]3)nc2)cc(OC)c1 [54-11] |
| 0.65 µM | 0.0093 µM | Clc1ccc(COc2ccc(-c3ccn[nH]3)nc2)cc1 [54-21] |
| 2.5 µM | 0.35 µM | CC1CCCC(C)N1C(=O)c1cccc(COc2ccc(-c3ccn[nH]3)nc2)c1 (centres unmarked) [Example 25-24] |
| 0.52 µM | 0.022 µM | Fc1cccc(COc2ccc(-c3ccn[nH]3)nc2)c1 [54-16] |
| 2.1 µM | 0.53 µM | CC(C)(C)OC(=O)N1CC[C@H]1C(=O)N1CCC[C@@H](COc2ccc(-c3ccn[nH]3)nc2)C1 [Example 3-47] |
| 0.053 µM | 0.06 µM | CCS(=O)(=O)c1cc(COc2ccc(-c3ccn[nH]3)nc2)ccn1 [Example 14-8] |
| 0.053 µM | 0.24 µM | COC(=O)N1CCC(CCOc2ccc(-c3ccn[nH]3)nc2)C(C)C1 (single isomer, unassigned) [Example 1-16-1] |
| 5.7 µM | 0.29 µM | O=C(C1CCOCC1)N1CCC(COc2ccc(-c3ccn[nH]3)nc2)CC1 [Example 2-8] |
| 0.34 µM | 0.077 µM | O=C(CC1CCOCC1)NCCC(=O)N1CCC[C@@H](COc2ccc(-c3ccn[nH]3)nc2)C1 [Example 4-6] |
| 1.1 µM | 0.021 µM | Fc1ccc(COc2ccc(-c3ccn[nH]3)nc2)cc1C(F)(F)F [54-8] |
| 3.9 µM | 7.5 µM | CS(=O)(=O)c1cccc(COc2ccc(-c3[nH]ncc3C(F)F)nc2)c1 [Example 46-1, 2-[4-(Difluoromethyl)-1H-pyrazol-5-yl]-5-[(3-methylsulfonylphenyl)methoxy]pyridine] |
| 8.6 µM | 0.59 µM | CC(=O)N1CCC(COc2ccc(-c3ccn[nH]3)nc2C)CC1 [Example 24-4] |
| 0.61 µM | 0.22 µM | CC(=O)N[C@H]1CC[C@H](COc2ccc(-c3ccn[nH]3)nc2)CC1 [Example 14-5] |

Reference: patent US20210040062A1, “AZOLE-SUBSTITUTED PYRIDINE COMPOUND” (TAISHO PHARMACEUTICAL CO., LTD., priority 2016, published 2021)
